Consider eleven compounds from patent US20160297833A1, “THIENOPYRIMIDINES AS MKNK1 AND MKNK2 INHIBITORS” (BAYER PHARMA AKTIENGESELLSCHAFT, priority 2013, published 2016).

The target in this experiment is T1, human full-length MKNK1 (Homo sapiens, UniProt Q9BUB5, T385D).
T1 construct: GST (N); purchased Carna Biosciences 02-145; host or cells: insect cells (baculovirus expression system)
As to the kind of experiment: MKNK1 kinase high ATP assay (TR-FRET). The note with it: Table 1; MKNK1 kinase high ATP assay, 2 mM ATP; read-out: MKNK1 IC50. It counts as biochemical. A digest of the protocol:
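Full-length human MKNK1 (T385D) preincubated 15 min at 22 °C with compound in HEPES pH 7.5/MgCl2/DTT buffer; reaction with 2 mM ATP (final) and 0.06 μM biotinylated peptide (final), 30 min at 22 °C.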
A general note: Time-resolved FRET reads energy transfer from a long-lived donor to a nearby acceptor.

T1 sequence (Q9BUB5 1-424 isoform Q9BUB5-2 T344D): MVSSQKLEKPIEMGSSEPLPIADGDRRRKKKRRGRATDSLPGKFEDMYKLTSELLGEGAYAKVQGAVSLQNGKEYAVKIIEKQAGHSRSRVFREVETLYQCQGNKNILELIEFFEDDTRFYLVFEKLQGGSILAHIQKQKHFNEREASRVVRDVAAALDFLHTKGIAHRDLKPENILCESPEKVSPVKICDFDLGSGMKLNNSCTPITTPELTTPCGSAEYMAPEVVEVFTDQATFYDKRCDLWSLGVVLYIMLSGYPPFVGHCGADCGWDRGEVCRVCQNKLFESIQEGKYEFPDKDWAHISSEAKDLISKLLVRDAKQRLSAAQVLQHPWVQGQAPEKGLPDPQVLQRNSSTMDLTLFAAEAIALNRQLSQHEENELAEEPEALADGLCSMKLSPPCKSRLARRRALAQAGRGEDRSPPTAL

Take `CN(C)C(=O)[C@H]1CCc2c(sc3ncnc(Nc4cc5cn[nH]c5cc4OCCN4CCOC4=O)c23)C1` [Example 194, (7S)—N,N-Dimethyl-4-({6-[2-(2-oxo-1,3-oxazolidin-3-yl)ethoxy]-1H-indazol-5-yl}amino)-5,6,7,8-tetrahydro[1]benzothieno[2,3-d]pyrimidine-7-carboxamide]: the IC50 (in general, the concentration needed to halve the response being measured) stood at 44.3 nM.
As for `O=C([C@H]1CCc2c(sc3ncnc(Nc4cc5cn[nH]c5cc4N4CCCC4)c23)C1)N1CCC1` [Example 195, Azetidin-1-yl[(7S)-4-{[6-(pyrrolidin-1-yl)-1H-indazol-5-yl]amino}-5,6,7,8-tetrahydro[1]benzothieno[2,3-d]pyrimidin-7-yl]methanone], the IC50 is 0.9 nM.
On to `CN(C)c1cc2[nH]ncc2cc1Nc1ncnc2sc3c(c12)CC[C@H](C(=O)N1CCC1)C3` [Example 196, Azetidin-1-yl[(7S)-4-{[6-(dimethylamino)-1H-indazol-5-yl]amino}-5,6,7,8-tetrahydro[1]benzothieno[2,3-d]pyrimidin-7-yl]methanone], for which the IC50 turned out to be 0.1 nM.
For the compound `CCN(OC)C(=O)[C@H]1CCc2c(sc3ncnc(Nc4cc5cn[nH]c5cc4OC)c23)C1` [Example 197, (7S)—N-Ethyl-N-methoxy-4-[(6-methoxy-1H-indazol-5-yl)amino]-5,6,7,8-tetrahydro[1]benzothieno[2,3-d]pyrimidine-7-carboxamide], the IC50 came to 0.1 nM.
Take `COc1cc2[nH]ncc2cc1Nc1ncnc2sc3c(c12)CC[C@H](C(=O)N(C)OC)C3` [Example 198, (7S)—N-Methoxy-4-[(6-methoxy-1H-indazol-5-yl)amino]-N-methyl-5,6,7,8-tetrahydro[1]benzothieno[2,3-d]pyrimidine-7-carboxamide]: the IC50 is 0.2 nM.
The figure for `CN(C)C(=O)[C@H]1CCc2c(sc3ncnc(Nc4cc5cn[nH]c5cc4OC4CCCC4)c23)C1` [Example 199, (7S)-4-{[6-(Cyclopentyloxy)-1H-indazol-5-yl]amino}-N,N-dimethyl-5,6,7,8-tetrahydro[1]benzothieno[2,3-d]pyrimidine-7-carboxamide] is 0.2 nM; for `CN(C)C(=O)[C@H]1CCc2c(sc3ncnc(Nc4cc5cn[nH]c5cc4OC4CCOCC4)c23)C1` [Example 200, (7S)—N,N-Dimethyl-4-{[6-(tetrahydro-2H-pyran-4-yloxy)-1H-indazol-5-yl]amino}-5,6,7,8-tetrahydro[1]benzothieno[2,3-d]pyrimidine-7-carboxamide] it is 1.6 nM; for `CN(C)C(=O)[C@H]1CCc2c(sc3ncnc(Nc4cc5cn[nH]c5cc4OCC4CCOCC4)c23)C1` [Example 201, (7S)—N,N-Dimethyl-4-{[6-(tetrahydro-2H-pyran-4-ylmethoxy)-1H-indazol-5-yl]amino}-5,6,7,8-tetrahydro[1]benzothieno[2,3-d]pyrimidine-7-carboxamide] it is 23.6 nM.
To `CN(C)C(=O)[C@H]1CCc2c(sc3ncnc(Nc4cc5cn[nH]c5cc4OC4CCCCC4)c23)C1` [Example 202, (7S)-4-{[6-(Cyclohexyloxy)-1H-indazol-5-yl]amino}-N,N-dimethyl-5,6,7,8-tetrahydro[1]benzothieno[2,3-d]pyrimidine-7-carboxamide] belongs 1 nM; to `CN(C)CCCOc1cc2[nH]ncc2cc1Nc1ncnc2sc3c(c12)CC[C@H](C(=O)N(C)C)C3` [Example 203, (7S)-4-({6-[3-(Dimethylamino)propoxy]-1H-indazol-5-yl}amino)-N,N-dimethyl-5,6,7,8-tetrahydro[1]benzothieno[2,3-d]pyrimidine-7-carboxamide], 17.1 nM; to `COc1cc2[nH]ncc2cc1Nc1ncnc2sc3c(c12)CC[C@H](C(=O)N(C)CC(C)(C)OC)C3` [Example 204, (7S)-4-[(6-Methoxy-1H-indazol-5-yl)amino]-N-(2-methoxy-2-methylpropyl)-N-methyl-5,6,7,8-tetrahydro[1]benzothieno[2,3-d]pyrimidine-7-carboxamide], 0.9 nM.
